Common to all, as to assay type: biochemical
What all share (conditions): HeLa S3 lysate, sfGFP/mCherry ratio, 2 hrs at 30° C.

In one assay the test system is ALK. Briefly: In vitro transcription-translation (IVTT) reporter assay, ALK test sequence. A digest of the protocol:
(§1)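 Coupled transcription-translation in HeLa S3 lysate with reporter plasmids encoding mCherry-P2A-3×FLAG-TEST-sfGFP behind an EMCV IRES. Compounds were half-log titrated (30 μM-0.1 μM in DMSO dilution plate) into master mix, then DNA was added. Reactions ran 2 hrs at 30° C, were PBS-quenched and read for fluorescence.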
(In general: Reporter assays use an easily measured gene product as a stand-in for the process of interest.)

The test system of another assay is MYC. Nature of the assay: In vitro transcription-translation (IVTT) reporter assay, MYC test sequence. In a few lines:
as §1

For another assay, the system named is KRAS G12D. Briefly: In vitro transcription-translation (IVTT) reporter assay, KRAS G12D test sequence. A digest of the protocol:
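Compounds, half-log titrated 30 μM-0.1 μM in DMSO, were mixed with HeLa S3 lysate master mix and plasmid DNA, then incubated 2 h at 30 °C before PBS quench. Each construct fuses the CCND1, KRAS G12D, MCL-1 or BCL-2 sequence between 3×FLAG and sfGFP, downstream of mCherry-P2A.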

From patent US20250091989A1, “SMALL MOLECULE PROTEIN SYNTHESIS MODULATORS” (Interdict Bio, Inc., priority 2023, published 2025) come the findings set out here.

Take `COc1ccc(C[C@H]2NC[C@H](O)[C@H]2OC(=O)C23CC(F)(C2)C3)cc1` [V187044, (2R,3S,4S)-4-hydroxy-2-[(4-methoxyphenyl)methyl]pyrrolidin-3-yl 3-fluorobicyclo[1.1.1]pentane-1-carboxylate; trifluoroacetic acid]: the values for the IC50 in the assay on ALK, in the assay on MYC and in the assay with KRAS G12D were under 10 µM, 10 to 20 µM and over 30 µM, respectively.

`COc1ccc(C[C@H]2NC[C@H](O)[C@H]2OC(=O)Cc2nnc(N)s2)cc1` [V187048, (2R,3S,4S)-4-hydroxy-2-[(4-methoxyphenyl)methyl]pyrrolidin-3-yl 2-(5-amino-1,3,4-thiadiazol-2-yl)acetate]: the IC50 in the assay with ALK, in the assay on MYC and in the assay with KRAS G12D was under 10 µM throughout.

Turning to `COc1ccc(C[C@H]2NC[C@H](O)[C@H]2OC(=O)Cc2cc3ccccc3s2)cc1` [V187053, (2R,3S,4S)-4-hydroxy-2-[(4-methoxyphenyl)methyl]pyrrolidin-3-yl 2-(1-benzothiophen-2-yl)acetate], the IC50 with ALK, in the assay with MYC and in the assay with KRAS G12D was under 10 µM throughout.

Consider `COc1ccc(C[C@H]2NC[C@H](O)[C@H]2OC(=O)Cc2cccnc2)cc1` [V187057, (2R,3S,4S)-4-hydroxy-2-[(4-methoxyphenyl)methyl]pyrrolidin-3-yl 2-(pyridin-3-yl)acetate], for which the IC50 in the assay with ALK, in the assay on MYC and in the assay on KRAS G12D was under 10 µM each time.

Take `COc1ccc(C[C@H]2NC[C@H](O)[C@H]2OC(=O)CCC2CC2)cc1` [V187063, (2R,3S,4S)-4-hydroxy-2-[(4-methoxyphenyl)methyl]pyrrolidin-3-yl 3-cyclopropylpropanoate; trifluoroacetic acid]: the IC50 in the assay on ALK, with MYC and with KRAS G12D was under 10 µM each time.

As for `COc1ccc(C[C@H]2NC[C@H](O)[C@H]2OC(=O)C2CC3(C2)CC(N(C)C)C3)cc1` (stereo partly drawn) [V187066, (2R,3S,4S)-4-hydroxy-2-[(4-methoxyphenyl)methyl]pyrrolidin-3-yl 6-(dimethylamino)spiro[3.3]heptane-2-carboxylate], the IC50 (commonly the concentration at which inhibition is half-maximal) in the assay on ALK was 10 to 20 µM; in the assay with MYC, over 30 µM; in the assay on KRAS G12D, over 30 µM.

Take `COc1ccc(C[C@H]2NC[C@H](O)[C@H]2OC(=O)COCc2ccc3nsnc3c2)cc1` [V187072, (2R,3S,4S)-4-hydroxy-2-[(4-methoxyphenyl)methyl]pyrrolidin-3-yl 2-(2,1,3-benzothiadiazol-5-ylmethoxy)acetate; trifluoroacetic acid]: the IC50 in the assay with ALK, with MYC and with KRAS G12D was under 10 µM throughout.

On to `COc1ccc(C[C@H]2NC[C@H](O)[C@H]2OC(=O)Cc2ccc3ccccc3c2)cc1` [V187123, (2R,3S,4S)-4-hydroxy-2-[(4-methoxyphenyl)methyl]pyrrolidin-3-yl 2-(naphthalen-2-yl)acetate; trifluoroacetic acid], for which the IC50 in the assay with ALK is under 10 µM; in the assay on MYC, 10 to 20 µM; in the assay on KRAS G12D it was over 30 µM.

For the molecule `COc1ccc(C[C@H]2NC[C@H](O)[C@H]2OC(=O)Cc2ccc(OC(F)(F)F)cc2)cc1` [V187159, (2R,3S,4S)-4-hydroxy-2-[(4-methoxyphenyl)methyl]pyrrolidin-3-yl 2-[4-(trifluoromethoxy)phenyl]acetate], the IC50 with ALK was 10 to 20 µM; in the assay with MYC, 10 to 20 µM; in the assay with KRAS G12D, over 30 µM.

As to `COc1ccc(C[C@H]2NC[C@H](O)[C@H]2OC(=O)CCC(F)(F)F)cc1` [V187163, (2R,3S,4S)-4-hydroxy-2-[(4-methoxyphenyl)methyl]pyrrolidin-3-yl 4,4,4-trifluorobutanoate; trifluoroacetic acid], the IC50 in the assay on ALK, in the assay on MYC and in the assay with KRAS G12D was under 10 µM in each case.

Take `COc1ccc(C[C@H]2NC[C@H](O)[C@H]2OC(=O)C2CC(F)C2)cc1` (stereo partly drawn) [V187166, (2R,3S,4S)-4-hydroxy-2-[(4-methoxyphenyl)methyl]pyrrolidin-3-yl 3-fluorocyclobutane-1-carboxylate; trifluoroacetic acid]: the IC50 with ALK, with MYC and in the assay with KRAS G12D was under 10 µM throughout.

Turning to `COc1ccc(C[C@H]2NC[C@H](O)[C@H]2OC(=O)CCc2cscn2)cc1` [V187173, (2R,3S,4S)-4-hydroxy-2-[(4-methoxyphenyl)methyl]pyrrolidin-3-yl 3-(1,3-thiazol-4-yl)propanoate], the IC50 in the assay on ALK, with MYC and in the assay with KRAS G12D was under 10 µM throughout.

Regarding `COc1ccc(C[C@H]2NC[C@H](O)[C@H]2OC(=O)Cc2noc(C)n2)cc1` [V187175, (2R,3S,4S)-4-hydroxy-2-[(4-methoxyphenyl)methyl]pyrrolidin-3-yl 2-(5-methyl-1,2,4-oxadiazol-3-yl)acetate; trifluoroacetic acid], the IC50 in the assay on ALK, with MYC and in the assay with KRAS G12D was under 10 µM each time.

For the molecule `COc1ccc(C[C@H]2NC[C@H](O)C2OC(=O)COCc2ccc3nonc3c2)cc1` (stereo partly drawn) [V187179], the IC50 with ALK, in the assay on MYC and with KRAS G12D was under 10 µM each time.

On to `COCCOCCOCC(=O)O[C@@H]1[C@@H](O)CN[C@@H]1Cc1ccc(OC)cc1` [V187184, (2R,3S,4S)-4-hydroxy-2-[(4-methoxyphenyl)methyl]pyrrolidin-3-yl 2-[2-(2-methoxyethoxy)ethoxy]acetate], for which the IC50 with ALK, with MYC and with KRAS G12D was under 10 µM in each case.

In the case of `COc1ccc(C[C@H]2NC[C@H](O)[C@H]2OC(=O)CC[C@@H]2NC(=O)C3(CNC3)NC2=O)cc1` [V187324, (2R,3S,4S)-4-hydroxy-2-[(4-methoxyphenyl)methyl]pyrrolidin-3-yl 3-[(7S)-6,9-dioxo-2,5,8-triazaspiro[3.5]nonan-7-yl]propanoate], the IC50 in the assay with ALK was over 30 µM; in the assay with MYC it was 20 to 30 µM; in the assay with KRAS G12D it was over 30 µM.

Turning to `COc1ccc(C[C@H]2NC[C@H](O)[C@H]2OC(=O)COCc2ccon2)cc1` [V187368, (2R,3S,4S)-4-hydroxy-2-[(4-methoxyphenyl)methyl]pyrrolidin-3-yl 2-(1,2-oxazol-3-ylmethoxy)acetate], the IC50 in the assay on ALK, in the assay on MYC and in the assay on KRAS G12D was under 10 µM in each case.

Consider `COc1ccc(C[C@H]2NC[C@H](O)[C@H]2OC(=O)Cc2nnn[nH]2)cc1` [V187533, (2R,3S,4S)-4-hydroxy-2-[(4-methoxyphenyl)methyl]pyrrolidin-3-yl 2-(1H−1,2,3,4-tetrazol-5-yl)acetate; trifluoroacetic acid], for which the IC50 in the assay on ALK is under 10 µM; in the assay on MYC it was 10 to 20 µM; in the assay on KRAS G12D, over 30 µM.

For `COc1ccc(C[C@H]2NC[C@H](O)[C@H]2OC(=O)C[C@H]2CCNC2)cc1` [V187689], the IC50 in the assay with ALK, in the assay with MYC and with KRAS G12D was under 10 µM each time.

As to `COc1ccc(C[C@H]2NC[C@H](O)[C@H]2OC(=O)CCCN2CCNCC2)cc1` [V187694, (2R,3S,4S)-4-hydroxy-2-[(4-methoxyphenyl)methyl]pyrrolidin-3-yl 4-(piperazin-1-yl)butanoate], the IC50 in the assay on ALK was under 10 µM; in the assay on MYC it was under 10 µM; in the assay on KRAS G12D, 10 to 20 µM.

As for `COc1ccc(C[C@H]2NC[C@H](O)[C@H]2OC(=O)COCc2nnc(C)s2)cc1` [V187720], the IC50 in the assay on ALK, with MYC and in the assay on KRAS G12D was under 10 µM in each case.

For `CC(=O)O[C@@H]1[C@@H](O)CN[C@@H]1Cc1ccc(-c2cn(-c3ccccc3)nn2)cc1` [V187731], the IC50 in the assay with ALK, in the assay with MYC and in the assay on KRAS G12D was under 10 µM in each case.
